Each compound was assayed against mouse TRPM3α2 (mTRPM3) ion channel (Mus musculus (Mouse), UniProt J9SQF3) (assay: TRPM3 ion channel driven Ca2+ uptake, Fluo-4 AM assay, mTRPM3alpha2 overexpressing flip-in HEK293 cells stimulated with pregnenolone sulfate). Conditions: PS (50 μM) stimulated, cpds. 608-666.
Format: cell-based
Method in brief: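 Flip-in HEK293 cells loaded with Fluo-4 AM were added to plates holding compound plus 50 μM pregnenolone sulfate in Ca2+-containing Krebs buffer. Fluorescence (ex 485/em 535 nm) read directly after cell addition; % inhibition relative to PS-stimulated vehicle and positive-control inhibitor.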

Sequence of mouse TRPM3α2 (mTRPM3) ion channel (J9SQF3 other isoform, or with tags, fused parts or gaps): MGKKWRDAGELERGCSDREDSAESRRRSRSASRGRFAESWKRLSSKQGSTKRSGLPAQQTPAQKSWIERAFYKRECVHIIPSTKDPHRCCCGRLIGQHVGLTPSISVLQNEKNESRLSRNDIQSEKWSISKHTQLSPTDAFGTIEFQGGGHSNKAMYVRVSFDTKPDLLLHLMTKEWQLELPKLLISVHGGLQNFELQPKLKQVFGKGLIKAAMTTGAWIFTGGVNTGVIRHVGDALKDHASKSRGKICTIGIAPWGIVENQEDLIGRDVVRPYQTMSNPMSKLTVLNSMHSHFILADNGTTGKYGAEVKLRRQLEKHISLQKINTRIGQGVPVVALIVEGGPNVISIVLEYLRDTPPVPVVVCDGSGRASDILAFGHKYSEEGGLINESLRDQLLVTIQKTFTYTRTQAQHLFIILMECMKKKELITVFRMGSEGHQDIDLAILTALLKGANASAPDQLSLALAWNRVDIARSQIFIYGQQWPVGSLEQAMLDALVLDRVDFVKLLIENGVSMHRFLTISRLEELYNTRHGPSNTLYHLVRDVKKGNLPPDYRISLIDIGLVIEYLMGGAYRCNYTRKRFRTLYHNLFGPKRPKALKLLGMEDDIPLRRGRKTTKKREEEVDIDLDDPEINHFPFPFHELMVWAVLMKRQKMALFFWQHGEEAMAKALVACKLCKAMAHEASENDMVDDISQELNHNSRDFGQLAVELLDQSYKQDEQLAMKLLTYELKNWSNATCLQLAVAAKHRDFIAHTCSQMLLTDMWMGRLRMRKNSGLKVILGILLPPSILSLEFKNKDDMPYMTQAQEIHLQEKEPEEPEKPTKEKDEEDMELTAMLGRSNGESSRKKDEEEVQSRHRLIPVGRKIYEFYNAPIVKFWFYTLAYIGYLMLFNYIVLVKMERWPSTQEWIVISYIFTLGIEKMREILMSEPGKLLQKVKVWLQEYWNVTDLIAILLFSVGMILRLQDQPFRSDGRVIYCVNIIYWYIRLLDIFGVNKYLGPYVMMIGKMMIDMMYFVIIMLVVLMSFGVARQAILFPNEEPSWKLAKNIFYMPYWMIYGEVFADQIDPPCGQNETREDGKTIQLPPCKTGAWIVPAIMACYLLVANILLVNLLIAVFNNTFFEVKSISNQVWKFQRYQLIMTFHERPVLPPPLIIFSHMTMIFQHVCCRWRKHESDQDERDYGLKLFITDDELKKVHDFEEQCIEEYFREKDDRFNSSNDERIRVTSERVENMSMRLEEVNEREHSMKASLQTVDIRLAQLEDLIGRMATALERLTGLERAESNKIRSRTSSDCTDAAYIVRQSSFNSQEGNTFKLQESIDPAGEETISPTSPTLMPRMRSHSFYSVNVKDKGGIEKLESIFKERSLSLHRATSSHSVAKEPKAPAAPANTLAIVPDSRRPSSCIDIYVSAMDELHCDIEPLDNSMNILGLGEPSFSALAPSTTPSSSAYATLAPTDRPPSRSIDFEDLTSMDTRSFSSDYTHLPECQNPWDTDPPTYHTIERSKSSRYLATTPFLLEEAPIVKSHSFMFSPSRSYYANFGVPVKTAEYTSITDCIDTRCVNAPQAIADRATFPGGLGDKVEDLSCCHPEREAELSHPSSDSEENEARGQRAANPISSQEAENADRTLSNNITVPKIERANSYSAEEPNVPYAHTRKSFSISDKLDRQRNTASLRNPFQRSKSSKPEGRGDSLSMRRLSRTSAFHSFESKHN

IC50 [µM] | SMILES
> 20 | Cc1oc2ccc(OCc3cn(C)nn3)cc2c1C(=O)NC1(CO)CCOCC1 [compound 604, N-(4-(hydroxymethyl)tetrahydro-2H-pyran-4-yl) -2-methyl-5-((1-methyl-1H-1,2,3-triazol-4-yl)methoxy)benzofuran-3-carboxamide]
> 20 | Cc1oc2ccc(OCc3cnnn3C)cc2c1C(=O)NC1(CO)CCOCC1 [compound 605, N-(4-(hydroxymethyl)tetrahydro-2H-pyran-4-yl)-2-methyl-5-((1-methyl-1H-1,2,3-triazol-5-yl)methoxy)benzofuran-3-carboxamide]
< 1 | Cc1oc2ccc(OCc3ccnn3C)cc2c1C(=O)NC1(CO)CCOCC1 [compound 608, N-(4-(hydroxymethyl)tetrahydro-2H-pyran-4-yl)-2-methyl-5-((1-methyl-1H-pyrazol-5-yl)methoxy)benzofuran-3-carboxamide]
< 1 | Cc1ncccc1COc1ccc2oc(C)c(C(=O)NC3(CO)CCOCC3)c2c1 [compound 611, N-(4-(hydroxymethyl)tetrahydro-2H-pyran-4-yl)-2-methyl-5-((2-methylpyridin-3-yl)methoxy)benzofuran-3-carboxamide]
< 1 | Cc1ncc(COc2ccc3oc(C)c(C(=O)NC4(CO)CCOCC4)c3c2)s1 [compound 613, N-(4-(hydroxymethyl)tetrahydro-2H-pyran-4-yl)-2-methyl-5-((2-methylthiazol-5-yl)methoxy)benzofuran-3-carboxamide]
< 1 | Cc1oc2ccc(OCc3ccc[nH]c3=O)cc2c1C(=O)NC1(CO)CCOCC1 [compound 614, N-(4-(hydroxymethyl)tetrahydro-2H-pyran-4-yl)-2-methyl-5-((2-oxo-1,2-dihydropyridin-3-yl)methoxy)benzofuran-3-carboxamide]
< 1 | Cc1oc2ccc(OCc3c[nH]nc3C(F)(F)F)cc2c1C(=O)NC1(CO)CCOCC1 [compound 615, N-(4-(hydroxymethyl)tetrahydro-2H-pyran-4-yl)-2-methyl-5-((3-(trifluoromethyl)-1H-pyrazol-4-yl)methoxy)benzofuran-3-carboxamide]
< 1 | Cc1cc(COc2ccc3oc(C)c(C(=O)NC4(CO)CCOCC4)c3c2)no1 [compound 618, N-(4-(hydroxymethyl)tetrahydro-2H-pyran-4-yl)-2-methyl-5-((5-methylisoxazol-3-yl)methoxy)benzofuran-3-carboxamide]
< 1 | Cc1cnc(COc2ccc3oc(C)c(C(=O)NC4(CO)CCOCC4)c3c2)s1 [compound 620, N-(4-(hydroxymethyl)tetrahydro-2H-pyran-4-yl)-2-methyl-5-((5-methylthiazol-2-yl)methoxy)benzofuran-3-carboxamide]
> 20 | Cc1ccc(COc2ccc3oc(C)c(C(=O)NC4(CO)CCOCC4)c3c2)nn1 [compound 621, N-(4-(hydroxymethyl)tetrahydro-2H-pyran-4-yl)-2-methyl-5-((6-methylpyridazin-3-yl)methoxy)benzofuran-3-carboxamide]
< 1 | Cc1oc2ccc(OCc3cccnn3)cc2c1C(=O)NC1(CO)CCOCC1 [compound 624, N-(4-(hydroxymethyl)tetrahydro-2H-pyran-4-yl)-2-methyl-5-(pyridazin-3-ylmethoxy)benzofuran-3-carboxamide]
< 1 | Cc1oc2ccc(OCc3cccnc3)cc2c1C(=O)NC1(CO)CCOCC1 [compound 625, N-(4-(hydroxymethyl)tetrahydro-2H-pyran-4-yl)-2-methyl-5-(pyridin-3-ylmethoxy)benzofuran-3-carboxamide]
< 1 | Cc1oc2ccc(OCc3cncs3)cc2c1C(=O)NC1(CO)CCOCC1 [compound 627, N-(4-(hydroxymethyl)tetrahydro-2H-pyran-4-yl)-2-methyl-5-(thiazol-5-ylmethoxy)benzofuran-3-carboxamide]
< 1 | COc1cc(COc2ccc3oc(C)c(C(=O)NC4(CO)CCOCC4)c3c2)ccn1 [compound 629, N-(4-(hydroxymethyl)tetrahydro-2H-pyran-4-yl)-5-((2-methoxypyridin-4-yl)methoxy)-2-methylbenzofuran-3-carboxamide]
> 20 | Cc1oc2ccc(OCc3cccc(O)n3)cc2c1C(=O)NC1(CO)CCOCC1 [compound 630, N-(4-(hydroxymethyl)tetrahydro-2H-pyran-4-yl)-5-((6-hydroxypyridin-2-yl)methoxy)-2-methylbenzofuran-3-carboxamide]
> 20 | Cc1oc2ccc(OCc3ccc(O)nc3)cc2c1C(=O)NC1(CO)CCOCC1 [compound 631, N-(4-(hydroxymethyl)tetrahydro-2H-pyran-4-yl)-5-((6-hydroxypyridin-3-yl)methoxy)-2-methylbenzofuran-3-carboxamide]
< 1 | Cc1ncsc1COc1ccc2oc(C)c(C(=O)N(C)C3(CO)CCOCC3)c2c1 [compound 634, N-(4-(hydroxymethyl)tetrahydro-2H-pyran-4-yl)-N.2-dimethyl-5-((4-methylthiazol-5-yl)methoxy)benzofuran-3-carboxamide]
< 1 | Cc1ncsc1COc1ccc2oc(C)c(C(=O)NC(C)(C)CC(N)=O)c2c1 [compound 649, N-(4-amino-2-methyl-4-oxobutan-2-yl)-2-methyl-5-((4-methylthiazol-5-yl)methoxy)benzofuran-3-carboxamide]
< 1 | Cc1ncsc1COc1ccc2oc(C)c(C(=O)NC3(C(N)=O)CCOCC3)c2c1 [compound 650, N-(4-carbamoyltetrahydro-2H-pyran-4-yl)-2-methyl-5-((4-methylthiazol-5-yl)methoxy)benzofuran-3-carboxamide]
< 1 | Cc1oc2ccc(OCc3cccnc3C(F)(F)F)cc2c1C(=O)NC(C)(C)CCO [compound 651, N-(4-hydroxy-2-methylbutan-2-yl)-2-methyl-5-((2-(trifluoromethyl)pyridin-3-yl)methoxy)benzofuran-3-carboxamide]
< 1 | Cc1ncsc1COc1ccc2oc(C)c(C(=O)NC(C)(C)CCO)c2c1 [compound 652, N-(4-hydroxy-2-methylbutan-2-yl)-2-methyl-5-((4-methylthiazol-5-yl)methoxy)benzofuran-3-carboxamide]
> 20 | Cc1ncsc1COc1ccc2oc(C(N)=O)c(C(=O)NC3(CO)CCOCC3)c2c1 [compound 658, N3-(4-(hydroxymethyl)tetrahydro-2H-pyran-4-yl)-5-((4-methylthiazol-5-yl)methoxy)benzofuran-2,3-dicarboxamide]
> 20 | Cc1ncsc1COc1ccc2oc(C)c(C(=O)N(CCO)C3CCC3)c2c1 [compound 660, N-cyclobutyl-N-(2-hydroxyethyl)-2-methyl-5-((4-methylthiazol-5-yl)methoxy)benzofuran-3-carboxamide]
< 1 | Cc1oc2ccc(OCc3cccnc3)cc2c1C(=O)NC(CO)C(N)=O (stereo not shown) [compound 662, N-(1-amino-3-hydroxy-1-oxopropan-2-yl)-2-methyl-5-(pyridin-3-ylmethoxy)benzofuran-3-carboxamide]
< 1 | COc1ncccc1COc1ccc2oc(C)c(C(=O)NC3CNCC3(F)F)c2c1 (stereo not shown) [compound 663, N-(4,4-difluoropyrrolidin-3-yl)-5-((2-methoxypyridin-3-yl)methoxy)-2-methylbenzofuran-3-carboxamide]
< 1 | Cc1oc2ccc(OCc3cccnc3C(F)(F)F)cc2c1C(=O)NC1COCC1(F)F (stereo not shown) [compound 664, N-(4,4-difluorotetrahydrofuran-3-yl)-2-methyl-5-((2-(trifluoromethyl)pyridin-3-yl)methoxy)benzofuran-3-carboxamide]
< 1 | COc1ncccc1COc1ccc2oc(C)c(C(=O)NC3COCC3(F)F)c2c1 (stereo not shown) [compound 665, N-(4,4-difluorotetrahydrofuran-3-yl)-5-((2-methoxypyridin-3-yl)methoxy)-2-methylbenzofuran-3-carboxamide]
< 1 | Cc1ncsc1COc1ccc2oc(C)c(C(=O)NCC(F)(F)F)c2c1 [compound 666, 2-methyl-5-((4-methylthiazol-5-yl)methoxy)-N-(2,2,2-trifluoroethyl)benzofuran-3-carboxamide]

Same assay, conditions: PS (50 μM) stimulated, cpds. 667-751

IC50 [µM] | SMILES
< 1 | Cc1cnn(C)c1COc1ccc2oc(C)c(C(=O)N[C@@H](CO)C(N)=O)c2c1 [compound 668, (S)-N-(1-Amino-3-hydroxy-1-oxopropan-2-yl)-5-((1,4-dimethyl-1H-pyrazol-5-yl)methoxy)-2-methylbenzofuran-3-carboxamide]
< 1 | Cc1oc2ccc(OCc3c(Cl)cnn3C)cc2c1C(=O)N[C@@H](CO)C(N)=O [compound 670, (S)-N-(1-Amino-3-hydroxy-1-oxopropan-2-yl)-5-((4-chloro-1-methyl-1H-pyrazol-5-yl)methoxy) -2-methylbenzofuran-3-carboxamide]
< 1 | Cc1oc2ccc(OCc3c(Cl)cnn3C(C)C)cc2c1C(=O)N[C@@H](CO)C(N)=O [compound 672, (S)-N-(1-amino-3-hydroxy-1-oxopropan-2-yl)-5-((4-chloro-1-isopropyl-1H-pyrazol-5-yl)methoxy)-2-methylbenzofuran-3-carboxamide]
< 1 | Cc1oc2ccc(OCc3ccnn3C(C)C)cc2c1C(=O)N[C@@H](CO)C(N)=O [compound 676, (S)-N-(1-amino-3-hydroxy-1-oxopropan-2-yl)-5-((1-isopropyl-1H-pyrazol-5-yl)methoxy)-2-methylbenzofuran-3-carboxamide]
< 1 | Cc1nc(C)c(COc2ccc3oc(C)c(C(=O)N[C@@H](CO)C(N)=O)c3c2)o1 [compound 678, (S)-N-(1-Amino-3-hydroxy-1-oxopropan-2-yl)-5-((2. 4-dimethyloxazol-5-yl)methoxy)-2-methylbenzofuran-3-carboxamide]
< 1 | Cc1ncoc1COc1ccc2oc(C)c(C(=O)N[C@@H](CO)C(N)=O)c2c1 [compound 680, (S)-N-(1-Amino-3-hydroxy-1-oxopropan-2-yl)-2-methyl-5-((4-methyloxazol-5-yl)methoxy)benzofuran-3-carboxamide]
